Results as given in article PMC9763333, “In vitro characterization of immune modulating drug-eluting immunobeads towards transarterial embolization in cancer” (Scientific Reports, 2022).
Several values for one entry are separate records, joined by “and”; a condition that tells them apart may be missing. Identical values can stand only once. Entries after “also recorded” stand apart in the source; their conditions may differ. Counter-ions that a name gives are not always drawn. Like-named read-outs stand apart in the source and are kept apart here.

How the values were obtained:
[1] = Drug solubilization by salt formation in acid; format: physicochemical; settings: for pH at which each drug dissolved for loading: T in °C in parentheses in the cell (20.1 or 21.1)
Summary of the method: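 Drug base suspended in water and titrated with 0.1 N HCl until dissolved, at a final 2.5 mg/mL; solution lyophilized to the hydrochloride salt or used directly for DC Bead LUMI loading. GS-9620 and its decomposition product analyzed by C8 reversed-phase HPLC (UV 230 nm) and LC/MS.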

[2] = Drug loading into DC Bead LUMI; format: physicochemical; settings: for Relative percent drug loaded in DC Bead LUMI over time / Maximum drug loaded (Triplicate), %: single replicates; for equivalent of drug loaded to sulfonated bead / Maximum drug loaded: mean ± SD; for Maximum drug loaded: n = 3, base form except Dox (salt form); for Drug: sulfonate: molar ratio at maximum loading; for Theoretical maximum loading level based on SO3− contents: per mL DC Bead LUMI, assuming 1:1 drug to sulfonate
Summary of the method: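 Loading done in triplicate; amount loaded = initial drug in loading solution minus drug remaining and cumulative drug withdrawn for sampling. Maximum loading taken when loading-solution concentration stopped changing, before washing; relative % loading expressed on a molar basis against available SO3^- ions, mean ± SD.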

[3] = Drug release from DC Bead LUMI in saline; format: physicochemical; settings: for percent drug eluted from DC Bead LUMI / drug eluted from DC Bead LUMI: saline, single replicates; for percent drug eluted from DC Bead LUMI: percent of drug loaded; for release behaviour in saline: DC Bead LUMI
Summary of the method: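 Beads loaded with drug (62.5 µL of DC Bead LUMI) were placed in 50 mL of saline (0.9 mg/mL, pH 7.4) and rocked upright at 37 °C at speed setting 10 (70 rpm). At each sampling time, 1 mL of medium was taken for drug quantification and replaced with 1 mL of fresh saline pre-warmed to 37 °C. Cumulative release accounted for drug removed in earlier samples, and the 50 mL volume kept sink conditions.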

[4] = cited from earlier work
[5] = Drug loading into LC Bead; format: physicochemical; settings: per 1 mL LC Bead
Method: Drug loading was performed in triplicate as previously reported[45] with slight modifications. Briefly, 1.3 molar equivalent of each drug was mixed with one molar equivalent of sulfonate group of DC Bead LUMI or LC Bead. The drug-bead mixture was agitated with upright rocking motion at a set maximum rocking speed of 10 which corresponds to 70 rpm, for 144 h at ambient temperature (Ward's® Rotating Mixers, VWR, Bridgeport, NJ). At specified time points (5, 15, 30 and 45 min and then hourly for eight hours followed by 24, 48, 72 and 144 h) a 10 µL aliquot was withdrawn from the loading solution to quantify drug loading based on the change in concentration over time. […] The concentration of drug in each aliquot of loading solution at each time point was quantified by HPLC as described above using a linear standard curve obtained from solutions of known concentration of each drug (7.8–125 μg/mL) versus the detector response as area under the curve. The amount of drug loaded at the specified time points was calculated by subtracting the amount of drug remaining from the initial amount of drug in the loading solution and the cumulative amount of drug withdrawn for sampling. The maximum drug loaded in the beads was calculated once no further change in the concentration in the loading solution could be measured and before washing the beads. […]

[6] = design: method as in PMID 28188808; settings: cited from earlier work
[7] = design: method as in PMID 17483878; settings: cited from earlier work

COc1nc(OCc2cccc(-c3ccccc3)c2C)ccc1CNCCNC(C)=O [BMS-202]
solubilization upon addition of 0.1 N HCl ([1]; 0.1 N HCl, deionized water): did not solubilize | pH at which each drug dissolved for loading [1]: 2.11 (20.1) | Relative percent drug loaded in DC Bead LUMI over time ([2]; 5 min): 36.8467% and 31.5632% and 21.322% | Relative percent drug loaded in DC Bead LUMI over time ([2]; 15 min): 30.3231% and 39.2476% and 47.138% | Relative percent drug loaded in DC Bead LUMI over time ([2]; 30 min): 47.9681% and 46.426% and 44.5676% | Relative percent drug loaded in DC Bead LUMI over time ([2]; 45 min): 56.9526% and 51.0915% and 54.8687% | Relative percent drug loaded in DC Bead LUMI over time ([2]; 60 min): 63.8406% and 58.0947% and 63.6687% | Relative percent drug loaded in DC Bead LUMI over time ([2]; 120 min): 85.531% and 84.4265% and 85.0145% | Relative percent drug loaded in DC Bead LUMI over time ([2]; 180 min): 98.296% and 98.7957% and 94.8002% | Relative percent drug loaded in DC Bead LUMI over time ([2]; 240 min): 106.342% and 112.145% and 106.321% | Relative percent drug loaded in DC Bead LUMI over time ([2]; 300 min): 111.107% and 116.727% and 112.613% | Relative percent drug loaded in DC Bead LUMI over time ([2]; 360 min): 115.109% and 120.479% and 108.292% | Relative percent drug loaded in DC Bead LUMI over time ([2]; 420 min): 117.263% and 122.293% and 119.836% | Relative percent drug loaded in DC Bead LUMI over time ([2]; 480 min): 118.462% and 124.442% and 121.713% | Relative percent drug loaded in DC Bead LUMI over time ([2]; 1440 min): 121.282% and 124.78% and 117.021% | Relative percent drug loaded in DC Bead LUMI over time ([2]; 2880 min): 119.234% and 124.78% and 122.668% | Relative percent drug loaded in DC Bead LUMI over time ([2]; 4320 min): 118.18% and 124.96% and 121.21% | Relative percent drug loaded in DC Bead LUMI over time ([2]; 8640 min): 119.5% and 124.96% and 122.329% | drug loaded above the predicted capacity of the bead ([2]; DC Bead LUMI): approximately 23% | loading behaviour ([2]; DC Bead LUMI): slower loading | Relative percent drug loaded (maximum, percent of SO3− available on a molar basis) ([2]; DC Bead LUMI, mean (n = 3), listed as BMS-200): 122.93% | equivalent of drug loaded to sulfonated bead ([2]; DC Bead LUMI): 0.35 ± 0.01 mM drug/ml beads | Maximum drug loaded ([2]; DC Bead LUMI): 148.05 ± 2.24 mg drug/ml beads | Maximum drug loaded (Triplicate), % ([2]; DC Bead LUMI, listed as BMS-200): 121.282% and 124.83% and 122.668% | Drug: sulfonate ([2]; DC Bead LUMI): 1.223 | Theoretical maximum loading level based on SO3− contents [2]: 120.40 mg and 120.4 mg | percent drug eluted from DC Bead LUMI ([3]; 5 min): 2.472% and 2.4176% and 2.385% | drug eluted from DC Bead LUMI ([3]; 5 min): 8.513 µmol and 8.629 µmol and 8.378 µmol | percent drug eluted from DC Bead LUMI ([3]; 15 min): 2.589% and 2.639% and 2.416% | drug eluted from DC Bead LUMI ([3]; 15 min): 8.915 µmol and 9.4174 µmol and 8.488 µmol | percent drug eluted from DC Bead LUMI ([3]; 30 min): 2.762% and 2.728% and 2.934% | drug eluted from DC Bead LUMI ([3]; 30 min): 9.513 µmol and 9.737 µmol and 10.3104 µmol | percent drug eluted from DC Bead LUMI ([3]; 45 min): 3.33% and 2.98% and 3.1337% | drug eluted from DC Bead LUMI ([3]; 45 min): 11.4676 µmol and 10.637 µmol and 11.0105 µmol | percent drug eluted from DC Bead LUMI ([3]; 60 min): 3.248% and 3.3497% and 3.385% | drug eluted from DC Bead LUMI ([3]; 60 min): 11.1858 µmol and 11.9555 µmol and 11.8939 µmol | percent drug eluted from DC Bead LUMI ([3]; 120 min): 4.556% and 3.526% and 4.046% | drug eluted from DC Bead LUMI ([3]; 120 min): 15.688 µmol and 12.584 µmol and 14.2155 µmol | percent drug eluted from DC Bead LUMI ([3]; 180 min): 5.055% and 4.61% and 4.461% | drug eluted from DC Bead LUMI ([3]; 180 min): 17.4074 µmol and 16.4551 µmol and 15.6742 µmol | percent drug eluted from DC Bead LUMI ([3]; 240 min): 5.272% and 4.993% and 5.201% | drug eluted from DC Bead LUMI ([3]; 240 min): 18.1541 µmol and 17.8191 µmol and 18.2734 µmol | percent drug eluted from DC Bead LUMI ([3]; 300 min): 5.575% and 5.37% and 5.345% | drug eluted from DC Bead LUMI ([3]; 300 min): 19.198 µmol and 19.1657 µmol and 18.7818 µmol | percent drug eluted from DC Bead LUMI ([3]; 360 min): 6.559% and 5.753% and 6.275% | drug eluted from DC Bead LUMI ([3]; 360 min): 22.5859 µmol and 20.5327 µmol and 22.0468 µmol | percent drug eluted from DC Bead LUMI ([3]; 420 min): 6.666% and 5.904% and 7.0124% | drug eluted from DC Bead LUMI ([3]; 420 min): 22.954 µmol and 21.073 µmol and 24.6387 µmol | percent drug eluted from DC Bead LUMI ([3]; 480 min): 7.32% and 7.2% and 7.286% | drug eluted from DC Bead LUMI ([3]; 480 min): 25.2083 µmol and 25.6984 µmol and 25.5995 µmol | percent drug eluted from DC Bead LUMI ([3]; 1440 min): 11.7204% and 10.5374% and 10.9377% | drug eluted from DC Bead LUMI ([3]; 1440 min): 40.3605 µmol and 37.6096 µmol and 38.4305 µmol | percent drug eluted from DC Bead LUMI ([3]; 2880 min): 14.9312% and 14.241% and 13.8435% | drug eluted from DC Bead LUMI ([3]; 2880 min): 51.4172 µmol and 50.828 µmol and 48.6405 µmol | percent drug eluted from DC Bead LUMI ([3]; 4320 min): 16.6252% and 15.679% and 15.9706% | drug eluted from DC Bead LUMI ([3]; 4320 min): 57.2509 µmol and 55.9606 µmol and 56.1142 µmol | percent drug eluted from DC Bead LUMI ([3]; 8640 min): 17.1401% and 16.2829% and 16.6995% | drug eluted from DC Bead LUMI ([3]; 8640 min): 59.0238 µmol and 58.1158 µmol and 58.6753 µmol | release behaviour in saline [3]: slow release; also recorded: prolonged release profile | pKa (literature) [4]: 7.74 (literature) [54]

COc1cccc2c1C(=O)c1c(O)c3c(c(O)c1C2=O)C[C@@](O)(C(=O)CO)C[C@@H]3O[C@H]1C[C@H](N)[C@H](O)[C@H](C)O1 [Dox, doxorubicin hydrochloride]
pH at which each drug dissolved for loading [1]: 4.2 (21.1) | drug loaded above the predicted capacity of the bead ([2]; DC Bead LUMI): approximately 23% | loading behaviour ([2]; DC Bead LUMI): slower loading | equivalent of drug loaded to sulfonated bead ([2]; DC Bead LUMI): 0.35 ± 0.01 mM drug/ml beads | Maximum drug loaded ([2]; DC Bead LUMI): 204.54 ± 3.87 mg drug/ml beads and 205 ± 4 mg drug/ml beads | Maximum drug loaded ([2]; DC Bead LUMI, listed as Doxorubicin HCl): 204.54 ± 3.87 mg drug/ml beads | Maximum drug loaded (Triplicate), % ([2]; DC Bead LUMI): 121.32% and 125.547% and 121.757% | Drug: sulfonate ([2]; DC Bead LUMI): 1.228 | Theoretical maximum loading level based on SO3− contents [2]: 166.50 mg | Theoretical maximum loading level based on SO3− contents ([2]; listed as Doxorubicin HCl): 166.5 mg | average amount of Dox loaded into 1 mL of LC Bead [5]: 33.58 ± 3.08 mg | drug eluted from DC Bead LUMI ([3]; 5 min): 0.8697 µmol and 0.7574 µmol and 0.6743 µmol | drug eluted from DC Bead LUMI ([3]; 15 min): 0.9785 µmol and 0.9763 µmol and 0.879 µmol | drug eluted from DC Bead LUMI ([3]; 30 min): 1.239 µmol and 1.282 µmol and 1.112 µmol | drug eluted from DC Bead LUMI ([3]; 45 min): 1.546 µmol and 1.5359 µmol and 1.496 µmol | drug eluted from DC Bead LUMI ([3]; 60 min): 1.899 µmol and 1.906 µmol and 1.678 µmol | drug eluted from DC Bead LUMI ([3]; 120 min): 3.985 µmol and 3.46 µmol and 3.165 µmol | drug eluted from DC Bead LUMI ([3]; 180 min): 6.141 µmol and 6.4405 µmol and 5.733 µmol | drug eluted from DC Bead LUMI ([3]; 240 min): 7.976 µmol and 7.077 µmol and 7.054 µmol | drug eluted from DC Bead LUMI ([3]; 300 min): 9.987 µmol and 9.178 µmol and 9.242 µmol | drug eluted from DC Bead LUMI ([3]; 360 min): 12.6965 µmol and 11.2108 µmol and 10.9569 µmol | drug eluted from DC Bead LUMI ([3]; 420 min): 14.5125 µmol and 12.8898 µmol and 12.4195 µmol | drug eluted from DC Bead LUMI ([3]; 480 min): 16.4266 µmol and 14.4776 µmol and 14.2688 µmol | drug eluted from DC Bead LUMI ([3]; 1440 min): 47.172 µmol and 44.3546 µmol and 42.6335 µmol | drug eluted from DC Bead LUMI ([3]; 2880 min): 68.0842 µmol and 61.0855 µmol and 60.2496 µmol | drug eluted from DC Bead LUMI ([3]; 4320 min): 76.8802 µmol and 71.2335 µmol and 68.2708 µmol | drug eluted from DC Bead LUMI ([3]; 8640 min): 74.6523 µmol and 73.8043 µmol and 71.6405 µmol | release behaviour in saline [3]: slow release | Dox released from DC Bead LUMI ([3]; Figure 11 legend, mean ± SD, n = 3): 74.4 ± 0.5 µmol Dox/ mL DC Bead LUMI | time to load drug to DC Bead LUMI ([6]; 0.065 mmol Dox per milliliter of beads, constant agitation, depending on bead size): 2 to 3 h | previously reported amount of Dox loaded into LC Bead [7]: 39.0 ± 3.8 mg/mL

CCc1c2c(nc3ccc(OC(=O)N4CCC(N5CCCCC5)CC4)cc13)-c1cc3c(c(=O)n1C2)COC(=O)[C@]3(O)CC [irinotecan]
time to load drug to DC Bead LUMI ([6]; 0.08 mmol irinotecan): ≤ 0.167 h
